Reference: the NIST ThermoML archive (doi:10.1016/j.jct.2017.12.012)
Numbers after ± are expanded uncertainties.

Test: activity coefficient (dimensionless); of the first substance listed, at infinite dilution; xn = mol fraction of the nth substance listed
Settings: 101.33 kPa, Liquid, Chromatography, x1 = 0

CCOC(C)=O [ethyl acetate] + CCCCCCCCn1cc[n+](C)c1C.O=S(=O)([N-]S(=O)(=O)C(F)(F)F)C(F)(F)F showed an activity coefficient (313.15 K) of 0.74 ± 0.08, an activity coefficient (323.15 K) of 0.67 ± 0.07 and an activity coefficient (333.15 K) of 0.61 ± 0.07. The activity coefficient (343.15 K) was 0.57 ± 0.06 and the activity coefficient (353.15 K) was 0.52 ± 0.06.

In the case of CCc1ccccc1 [ethylbenzene] + CCCCCCCCn1cc[n+](C)c1C.O=S(=O)([N-]S(=O)(=O)C(F)(F)F)C(F)(F)F, the activity coefficient (313.15 K) is reported as 1.37 ± 0.14, the activity coefficient (323.15 K) is reported as 1.29 ± 0.13 and the activity coefficient (333.15 K) is reported as 1.2 ± 0.12. It also gave an activity coefficient (343.15 K) of 1.14 ± 0.12 and an activity coefficient (353.15 K) of 1.08 ± 0.11.

Molecule CCCCCCC [heptane] + CCCCCCCCn1cc[n+](C)c1C.O=S(=O)([N-]S(=O)(=O)C(F)(F)F)C(F)(F)F has an activity coefficient (313.15 K) of 8.82 ± 0.93, an activity coefficient (323.15 K) of 7.77 ± 0.82 and an activity coefficient (333.15 K) of 6.89 ± 0.72. For the same molecule, the activity coefficient (343.15 K) was 6.29 ± 0.66 and the activity coefficient (353.15 K) was 5.69 ± 0.6.

With C=CCCCC [hex-1-ene] + CCCCCCCCn1cc[n+](C)c1C.O=S(=O)([N-]S(=O)(=O)C(F)(F)F)C(F)(F)F the activity coefficient (313.15 K) was 4.99 ± 0.52, the activity coefficient (323.15 K) was 4.26 ± 0.45 and the activity coefficient (333.15 K) was 3.65 ± 0.38. It also gave an activity coefficient (343.15 K) of 3.18 ± 0.33 and an activity coefficient (353.15 K) of 2.81 ± 0.3.

CCCCCC [hexane] + CCCCCCCCn1cc[n+](C)c1C.O=S(=O)([N-]S(=O)(=O)C(F)(F)F)C(F)(F)F showed an activity coefficient (313.15 K) of 7.89 ± 0.83, an activity coefficient (323.15 K) of 6.52 ± 0.69 and an activity coefficient (333.15 K) of 5.57 ± 0.59. It also gave an activity coefficient (343.15 K) of 4.87 ± 0.51 and an activity coefficient (353.15 K) of 4.22 ± 0.44.

In the case of CO [methanol] + CCCCCCCCn1cc[n+](C)c1C.O=S(=O)([N-]S(=O)(=O)C(F)(F)F)C(F)(F)F, the activity coefficient (313.15 K) is reported as 1.37 ± 0.14, the activity coefficient (323.15 K) is reported as 1.26 ± 0.13 and the activity coefficient (333.15 K) is reported as 1.14 ± 0.12. The activity coefficient (343.15 K) was 1.05 ± 0.11 and the activity coefficient (353.15 K) was 0.96 ± 0.1.

Work on CC1CCCCC1 [methylcyclohexane] + CCCCCCCCn1cc[n+](C)c1C.O=S(=O)([N-]S(=O)(=O)C(F)(F)F)C(F)(F)F yielded an activity coefficient (313.15 K) of 5.67 ± 0.6, an activity coefficient (323.15 K) of 4.88 ± 0.51 and an activity coefficient (333.15 K) of 4.25 ± 0.45. For the same molecule, the activity coefficient (343.15 K) was 3.79 ± 0.4 and the activity coefficient (353.15 K) was 3.32 ± 0.35.

For CCCCCCCCC [nonane] + CCCCCCCCn1cc[n+](C)c1C.O=S(=O)([N-]S(=O)(=O)C(F)(F)F)C(F)(F)F, the activity coefficient (313.15 K) was 14.4 ± 1.5, the activity coefficient (323.15 K) was 12.1 ± 1.3 and the activity coefficient (333.15 K) was 10.4 ± 1.1. For the same molecule, the activity coefficient (343.15 K) was 9.04 ± 0.95 and the activity coefficient (353.15 K) was 8.04 ± 0.85.

For CCCCCCCC [octane] + CCCCCCCCn1cc[n+](C)c1C.O=S(=O)([N-]S(=O)(=O)C(F)(F)F)C(F)(F)F, the activity coefficient (313.15 K) was 11.1 ± 1.2, the activity coefficient (323.15 K) was 9.5 ± 1 and the activity coefficient (333.15 K) was 8.12 ± 0.85. The activity coefficient (343.15 K) was 7.17 ± 0.75 and the activity coefficient (353.15 K) was 6.32 ± 0.66.

CCCCCO [pentan-1-ol] + CCCCCCCCn1cc[n+](C)c1C.O=S(=O)([N-]S(=O)(=O)C(F)(F)F)C(F)(F)F gave an activity coefficient (313.15 K) of 2.61 ± 0.27, an activity coefficient (323.15 K) of 2.22 ± 0.23 and an activity coefficient (333.15 K) of 1.92 ± 0.2. It also gave an activity coefficient (343.15 K) of 1.62 ± 0.17 and an activity coefficient (353.15 K) of 1.41 ± 0.15.

CCCCC [pentane] + CCCCCCCCn1cc[n+](C)c1C.O=S(=O)([N-]S(=O)(=O)C(F)(F)F)C(F)(F)F showed an activity coefficient (313.15 K) of 6.78 ± 0.71, an activity coefficient (323.15 K) of 5.63 ± 0.59 and an activity coefficient (333.15 K) of 4.81 ± 0.51. The activity coefficient (343.15 K) was 4.24 ± 0.45 and the activity coefficient (353.15 K) was 3.66 ± 0.38.

Molecule CCCO [propan-1-ol] + CCCCCCCCn1cc[n+](C)c1C.O=S(=O)([N-]S(=O)(=O)C(F)(F)F)C(F)(F)F has an activity coefficient (313.15 K) of 1.94 ± 0.2, an activity coefficient (323.15 K) of 1.67 ± 0.17 and an activity coefficient (333.15 K) of 1.42 ± 0.15. The activity coefficient (343.15 K) was 1.22 ± 0.13 and the activity coefficient (353.15 K) was 1.05 ± 0.11.

For CC(C)O [propan-2-ol] + CCCCCCCCn1cc[n+](C)c1C.O=S(=O)([N-]S(=O)(=O)C(F)(F)F)C(F)(F)F, the activity coefficient (313.15 K) was 2.13 ± 0.22, the activity coefficient (323.15 K) was 1.82 ± 0.19 and the activity coefficient (333.15 K) was 1.56 ± 0.16. It also gave an activity coefficient (343.15 K) of 1.34 ± 0.14 and an activity coefficient (353.15 K) of 1.17 ± 0.12.

For ClC(Cl)(Cl)Cl [tetrachloromethane] + CCCCCCCCn1cc[n+](C)c1C.O=S(=O)([N-]S(=O)(=O)C(F)(F)F)C(F)(F)F, the activity coefficient (313.15 K) was 1.77 ± 0.18, the activity coefficient (323.15 K) was 1.67 ± 0.17 and the activity coefficient (333.15 K) was 1.57 ± 0.16. It also gave an activity coefficient (343.15 K) of 1.46 ± 0.15 and an activity coefficient (353.15 K) of 1.39 ± 0.14.

With C1CCOC1 [tetrahydrofuran] + CCCCCCCCn1cc[n+](C)c1C.O=S(=O)([N-]S(=O)(=O)C(F)(F)F)C(F)(F)F the activity coefficient (313.15 K) was 0.54 ± 0.06, the activity coefficient (323.15 K) was 0.48 ± 0.05 and the activity coefficient (333.15 K) was 0.44 ± 0.05. It also gave an activity coefficient (343.15 K) of 0.4 ± 0.05 and an activity coefficient (353.15 K) of 0.37 ± 0.04.

Cc1ccccc1 [toluene] + CCCCCCCCn1cc[n+](C)c1C.O=S(=O)([N-]S(=O)(=O)C(F)(F)F)C(F)(F)F showed an activity coefficient (313.15 K) of 1.03 ± 0.1, an activity coefficient (323.15 K) of 0.94 ± 0.1 and an activity coefficient (333.15 K) of 0.87 ± 0.09. It also gave an activity coefficient (343.15 K) of 0.82 ± 0.08 and an activity coefficient (353.15 K) of 0.78 ± 0.08.

In the case of ClC(Cl)Cl [trichloromethane] + CCCCCCCCn1cc[n+](C)c1C.O=S(=O)([N-]S(=O)(=O)C(F)(F)F)C(F)(F)F, the activity coefficient (313.15 K) is reported as 0.77 ± 0.08, the activity coefficient (323.15 K) is reported as 0.7 ± 0.07 and the activity coefficient (333.15 K) is reported as 0.65 ± 0.07. For the same molecule, the activity coefficient (343.15 K) was 0.6 ± 0.06 and the activity coefficient (353.15 K) was 0.54 ± 0.06.
